Test results published in ChEMBL document CHEMBL5120794, “Development of 5-hydroxyl-1-azabenzanthrone derivatives as dual binding site and selective acetylcholinesterase inhibitors” (Eur J Med Chem, 2022).
Values belong to the compound of their own block, whether it stands above or below them. Activity calls are given as the source filed them. No cut-off for these calls is given here.

Tests used:
PC-12 = assay: Cytoprotective activity against H2O2-induced oxidative damage in rat PC-12 cells assessed as cell viability at 1 uM preincubated for 4 hrs followed by H2O2 treatment for another 24 hrs by MTT assay; assay type: functional, cell-based; settings: time 28.0 hrs
Acetylcholinesterase = Acetylcholinesterase (Electrophorus electricus, UniProt O42275); assay: Inhibition of Electrophorus electricus AchE using […] as substrate incubated for 10 mins followed by substrate addition measured at 0 to 180 secs by Ellman's method
[1] = target: Amyloid-beta precursor protein (Homo sapiens) (UniProt P05067); assay: Inhibition of amyloid beta (1 to 42) (unknown origin) self-induced aggregation at 25 uM measured after 46 to 48 hrs by Thioflavin binding assay relative to control; settings: time 46-48 hrs
Cholinesterase = Cholinesterase (Equus caballus, UniProt P81908)
Description: Inhibition of equine serum BchE using S-butyryl thiocholine iodide as substrate incubated for 10 mins followed by substrate addition measured at 0 to 180 secs by Ellman's method

in vitro = settings: PAMPA

Chain of Cholinesterase (P81908 whole entry): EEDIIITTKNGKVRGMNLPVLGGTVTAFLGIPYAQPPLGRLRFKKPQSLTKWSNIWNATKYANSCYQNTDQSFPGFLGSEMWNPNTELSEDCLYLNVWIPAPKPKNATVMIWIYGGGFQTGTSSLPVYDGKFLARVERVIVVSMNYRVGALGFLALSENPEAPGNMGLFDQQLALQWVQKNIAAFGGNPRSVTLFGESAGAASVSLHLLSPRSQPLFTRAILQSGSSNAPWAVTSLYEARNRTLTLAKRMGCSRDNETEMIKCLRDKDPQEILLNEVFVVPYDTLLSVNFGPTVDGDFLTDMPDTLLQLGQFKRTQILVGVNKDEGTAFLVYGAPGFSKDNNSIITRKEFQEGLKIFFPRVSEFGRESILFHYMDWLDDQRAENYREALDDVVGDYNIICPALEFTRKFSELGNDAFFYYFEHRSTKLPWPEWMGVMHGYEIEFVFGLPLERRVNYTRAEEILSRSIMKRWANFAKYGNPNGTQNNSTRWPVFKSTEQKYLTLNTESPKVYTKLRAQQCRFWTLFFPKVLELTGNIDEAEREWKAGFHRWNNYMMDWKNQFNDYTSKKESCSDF
Chain of Amyloid-beta precursor protein (Homo sapiens) (P05067 whole entry): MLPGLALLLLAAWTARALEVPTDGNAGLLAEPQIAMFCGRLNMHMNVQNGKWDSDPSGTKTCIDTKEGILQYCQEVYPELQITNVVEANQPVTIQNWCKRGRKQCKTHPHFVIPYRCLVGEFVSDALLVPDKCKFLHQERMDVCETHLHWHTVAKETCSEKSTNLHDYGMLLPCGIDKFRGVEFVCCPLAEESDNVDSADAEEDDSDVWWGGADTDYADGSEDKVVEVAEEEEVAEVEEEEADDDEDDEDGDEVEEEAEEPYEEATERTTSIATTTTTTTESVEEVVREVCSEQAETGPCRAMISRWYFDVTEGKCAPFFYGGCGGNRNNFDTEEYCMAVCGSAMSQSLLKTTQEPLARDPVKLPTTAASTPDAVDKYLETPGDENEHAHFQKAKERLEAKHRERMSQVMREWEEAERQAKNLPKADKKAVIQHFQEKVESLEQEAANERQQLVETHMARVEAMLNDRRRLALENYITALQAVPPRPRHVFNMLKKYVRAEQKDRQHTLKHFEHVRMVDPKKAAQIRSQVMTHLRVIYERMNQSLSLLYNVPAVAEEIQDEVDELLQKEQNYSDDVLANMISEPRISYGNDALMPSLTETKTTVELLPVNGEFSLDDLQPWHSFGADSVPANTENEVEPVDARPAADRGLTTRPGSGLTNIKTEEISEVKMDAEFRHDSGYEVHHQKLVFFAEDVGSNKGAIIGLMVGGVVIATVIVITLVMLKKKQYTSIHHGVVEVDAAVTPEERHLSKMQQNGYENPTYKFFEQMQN
Chain of Acetylcholinesterase (O42275 whole entry): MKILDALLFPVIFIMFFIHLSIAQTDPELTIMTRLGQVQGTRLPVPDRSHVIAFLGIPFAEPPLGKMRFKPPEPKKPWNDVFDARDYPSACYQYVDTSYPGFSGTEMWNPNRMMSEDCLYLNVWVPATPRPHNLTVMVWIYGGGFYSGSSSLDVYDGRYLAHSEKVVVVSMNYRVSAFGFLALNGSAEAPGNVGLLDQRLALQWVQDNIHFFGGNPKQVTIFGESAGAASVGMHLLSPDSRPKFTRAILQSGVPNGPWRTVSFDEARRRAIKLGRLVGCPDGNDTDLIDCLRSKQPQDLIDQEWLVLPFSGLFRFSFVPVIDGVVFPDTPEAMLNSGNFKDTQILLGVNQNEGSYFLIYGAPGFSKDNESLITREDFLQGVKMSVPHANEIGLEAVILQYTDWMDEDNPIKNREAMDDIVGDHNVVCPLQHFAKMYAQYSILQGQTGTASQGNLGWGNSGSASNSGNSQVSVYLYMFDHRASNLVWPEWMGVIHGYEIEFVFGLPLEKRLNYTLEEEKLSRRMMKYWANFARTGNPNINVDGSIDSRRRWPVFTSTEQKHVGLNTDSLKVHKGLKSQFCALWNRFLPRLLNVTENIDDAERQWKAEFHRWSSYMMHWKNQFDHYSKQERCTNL

SMILES: O=C1c2ccccc2-c2nccc3cc(OCCN4CCN(CCO)CC4)cc1c23
Activity (PC-12): Active | IC50 (Acetylcholinesterase): 420 nM | inhibition [1]: 14.9% | IC50 (Cholinesterase): > 100 µM

SMILES: CC1CCCCN1CCOc1cc2c3c(nccc3c1)-c1ccccc1C2=O (configuration not stated)
Activity (PC-12): Active | IC50 (Acetylcholinesterase): 1310 nM | inhibition [1]: 16.2% | IC50 (Cholinesterase): > 100 µM

Papp (in vitro): 0.9 ×10⁻⁶ cm/s
SMILES: CCn1cc(C(=O)O)c(=O)c2cc(F)c(N3CCNC(C)C3)c(F)c21 (configuration not stated) [LOMEFLOXACIN]

SMILES: CC1CCCCN1CCCCOc1cc2c3c(nccc3c1)-c1ccccc1C2=O (configuration not stated)
Activity (PC-12): Active | IC50 (Acetylcholinesterase): 250 nM | inhibition [1]: 34.8% | IC50 (Cholinesterase): 4.15 µM

SMILES: CN1CCN(CCOc2cc3c4c(nccc4c2)-c2ccccc2C3=O)CC1
Activity (PC-12): Active | IC50 (Acetylcholinesterase): 860 nM | inhibition [1]: 18.5% | IC50 (Cholinesterase): > 100 µM
